The source of these data is patent publication US20050026987A1, “CBI analogues of the duocarmycins and CC-1065” (The Scripps Research Institute, priority 2003, published 2005).

The test system of the data set is L1210. Kind of data set: L1210 cytotoxic potency. The note with it: for distinction NO2 versus OMe substituent (more potent than corresponding methoxy derivative): C5, C6, C7 nitro vs corresponding methoxy; for fold less potent than C5 acyl derivative 54: 52: versus the C5 acyl derivatives, 62: versus 54.
The mark [1] stands for this setting: relative to (+)-CBI-indole (R=H).
[2] abbreviates: read-out: IC50 (cytotoxic potency), L1210.
[3] abbreviates: Mus musculus, L1210, read-out: IC50 (cytotoxic potency).
Setting [4] is: relative to CBI-TMI, IC50=30 pM.

Structures are written as SMILES. “And” between values parts separate entries of the source, which are not always exact repeats. Equal entries are not always repeated. Where two headings read alike, the source gives them in different places.

Turning to `O=C1C=C2N(C(=O)c3cc4c(ccc5ccccc54)[nH]3)C[C@H]3C[C@@]23c2ccccc21` [(+)-77, N^2-[(Benz[e]indole-2-yl)carbonyl]-1,2,9,9a-tetrahydrocyclopropa[c]benz[e]indol-4-one], the “reduction in potency relative to the fused pyrrole 69 or the fused furan 71” value is reported as 6-8 fold. In addition, under setting [1], the “reduction in cytotoxic potency compared to (+)-CBI-indole” value is listed as 2 fold.
As to `O=C1C=C2N(C(=O)c3cc4cc5ccccc5cc4[nH]3)C[C@@H]3C[C@]23c2ccccc21` [(+)-78, N^2-[(Benz[f]indole-2-yl)carbonyl]-1,2,9,9a-tetrahydrocyclopropa[c]benz[e]indol-4-one], under setting [1], the “increase in cytotoxic potency over (+)-CBI-indole (5)” value (“increase in cytotoxic potency over” below) was found to be 5 fold.
`COc1cc2cc(C(=O)N3CC4CC45C3=CC(=O)c3ccccc35)[nH]c2c(OC)c1OC` (stereo not shown) [CBI-TMI, reference compound]: the concentration for half-maximal inhibition (IC50) under setting [2] was determined as 30 pM. Also, the “increase in cytotoxic potency over” value under setting [1] is ~100 fold and 90 fold.
Consider `COc1c(O)c2c(c3cc(C(=O)N4CCc5c4c(O)c(OC)c4[nH]c(C(=O)N6CC7CC78C6=CC(=O)c6[nH]cc(C)c68)cc54)[nH]c13)CCN2C(N)=O` (stereo not shown) [CC-1065], for which, under setting [3], the 50% inhibitory concentration (IC50) stood at 20 pM.
Take `O=C1C=C2N(C(=O)c3cc4ccccc4[nH]3)CC3CC23c2ccccc21` [compound 5, N^2-[(Indole-2-yl)carbonyl]-(8bR,9aS)-1,2,9,9a-tetrahydrocyclopropa[c]benz[e]indol-4-one, reference compound]: the IC50 under setting [2] was 50 pM.
Consider `COc1cccc2[nH]c(C(=O)N3C[C@H]4C[C@@]45C3=CC(=O)c3ccccc35)cc12` [compound 6, N^2-[(4-Methoxyindole-2-yl)carbonyl]-(8bR,9aS)-1,2,9,9a-tetrahydrocyclopropa[c]benz[e]indol-4-one], for which the “increase in cytotoxic potency over” value under setting [1] is listed as 4 fold. For the same compound, the “decrease in cytotoxic potency compared with CBI-TMI (4)” value (“decrease in cytotoxic potency” below) under setting [4] was 17 fold and 16-17 fold.
As for `COc1ccc2[nH]c(C(=O)N3C[C@H]4C[C@@]45C3=CC(=O)c3ccccc35)cc2c1` [compound 7, N^2-[(5-Methoxyindole-2-yl)carbonyl]-(8bR,9aS)-1,2,9,9a-tetrahydrocyclopropa[c]benz[e]indol-4-one], the IC50 under setting [2] was found to be 50 pM. Also, the “decrease in cytotoxic potency” value under setting [4] amounted to 1.6 fold.
Consider `COc1ccc2[nH]c(C(=O)N3CC4CC45C3=CC(=O)c3ccccc35)cc2c1OC` [compound 10, N^2-[(4,5-Dimethoxyindole-2-yl)carbonyl]-(8bR,9aS)-1,2,9,9a-tetrahydrocyclopropa[c]benz[e]indol-4-one], for which the “relative cytotoxic potency in words” value is listed as “much less active”.
With `COc1ccc2cc(C(=O)N3CC4CC45C3=CC(=O)c3ccccc35)[nH]c2c1OC` [compound 12, N^2-[(6,7-Dimethoxyindole-2-yl)carbonyl]-(8bR,9aS)-1,2,9,9a-tetrahydrocyclopropa[c]benz[e]indol-4-one], the “decrease in cytotoxic potency” value under setting [4] worked out at 6.6 fold.
On to `CCOc1ccc2[nH]c(C(=O)N3CC4CC45C3=CC(=O)c3ccccc35)cc2c1` [compound 15, N^2-[(5-Ethoxyindole-2-yl)carbonyl]-(8bR,9aS)-1,2,9,9a-tetrahydrocyclopropa[c]benz[e]indol-4-one], for which the “additional increase in cytotoxic potency versus C5 methoxy” value (C5 alkyl ethers relative to C5 OMe) was 5 fold. Moreover, the half-maximal inhibitory concentration (IC50) under setting [2] worked out at 10 pM.
Consider `CSc1ccc2[nH]c(C(=O)N3CC4CC45C3=CC(=O)c3ccccc35)cc2c1` [compound 21, N^2-[(5-Thiomethylindole-2-yl)carbonyl]-(8bR,9aS)-1,2,9,9a-tetrahydrocyclopropa[c]benz-[e]indol-4-one], for which the IC50 under setting [2] came out at 50 pM.
As to `CCSc1ccc2[nH]c(C(=O)N3CC4CC45C3=CC(=O)c3ccccc35)cc2c1` [compound 23, N^2-[(5-Thioethylindole-2-yl)carbonyl]-(8bR,9aS)-1,2,9,9a-tetrahydrocyclopropa[c]benz[e]indol-4-one], the IC50 under setting [2] amounted to 100 pM.
In the case of `Cc1ccc2[nH]c(C(=O)N3C[C@H]4C[C@@]45C3=CC(=O)c3ccccc35)cc2c1` [compound 24, N^2-[(5-Methylindole-2-yl)carbonyl]-(8bR,9aS)-1,2,9,9a-tetrahydrocyclopropa[c]benz[e]in-dol-4-one], the IC50 under setting [2] is 2000 pM.
As for `CCc1ccc2[nH]c(C(=O)N3CC4CC45C3=CC(=O)c3ccccc35)cc2c1` [compound 25, N^2-[(5-Ethylindole-2-yl)carbonyl]-(8bR,9aS)-1,2,9,9a-tetrahydrocyclopropa[c]benz[e]indol-4-one], the 50% inhibitory concentration (IC50) under setting [2] turned out to be 2000 pM.
Still for that read-out and setting: for `N#Cc1ccc2[nH]c(C(=O)N3CC4CC45C3=CC(=O)c3ccccc35)cc2c1` [compound 31, N^2-[(5-Cyanoindole-2-yl)carbonyl]-(8bR,9aS)-1,2,9,9a-tetrahydrocyclopropa[c]benz[e]in-dol-4-one] the value was 30 pM.
Regarding `O=C(c1cc2cc([N+](=O)[O-])ccc2[nH]1)N1C[C@@H](CCl)c2c1cc(O)c1ccccc21` [compound 49, 3-(5-Nitroindole-2-carbonyl)-1-(S)-(chloromethyl)-5-hydroxy-1,2-dihydro-3H-benz[e]indole], the “distinction NO2 versus OMe substituent (more potent than corresponding methoxy derivative)” value stood at 2.5 ×. Moreover, the IC50 under setting [3] was determined as 20 pM.
For the compound `O=C(c1cc2ccc([N+](=O)[O-])cc2[nH]1)N1C[C@@H](CCl)c2c1cc(O)c1ccccc21` [compound 50, 3-(6-Nitroindole-2-carbonyl)-1-(S)-(chloromethyl)-5-hydroxy-1,2-dihydro-3H-benz[e]indole], the “distinction NO2 versus OMe substituent (more potent than corresponding methoxy derivative)” value was determined as 5 ×.
The same measure, in the same setting: then `O=C(c1cc2cccc([N+](=O)[O-])c2[nH]1)N1C[C@@H](CCl)c2c1cc(O)c1ccccc21` [compound 51, 3-(7-Nitroindole-2-carbonyl)-1-(S)-(chloromethyl)-5-hydroxy-1,2-dihydro-3H-benz[e]indole], with 1.5 ×.
Turning to `O=Cc1ccc2[nH]c(C(=O)N3C[C@@H](CCl)c4c3cc(O)c3ccccc43)cc2c1` [compound 52, 3-(5-Formylindole-2-carbonyl)-1-(S)-(chloromethyl)-5-hydroxy-1,2-dihydro-3H-benz[e]indole], the “fold less potent than C5 acyl derivative 54” value is given as 50 fold.
On to `CCC(=O)c1ccc2[nH]c(C(=O)N3CC4CC45C3=CC(=O)c3ccccc35)cc2c1` [compound 56, N^2-[(5-Propionylindole-2-yl)carbonyl]-(8bR,9aS)-1,2,9,9a-tetrahydrocyclopropa[c]benz[e]-indol-4-one], for which the “increase in cytotoxic potency over” value under setting [1] worked out at 1000 fold.
In the case of `CCCC(=O)c1ccc2[nH]c(C(=O)N3C[C@H]4C[C@@]45C3=CC(=O)c3ccccc35)cc2c1` [compound 57, N^2-[(5-Butyrylindole-2-yl)carbonyl]-(8bR,9aS)-1,2,9,9a-tetrahydrocyclopropa[c]benz[e]indol-4-one], the IC50 under setting [2] is 20 pM.
`CNC(=O)c1ccc2[nH]c(C(=O)N3C[C@@H](CCl)c4c3cc(O)c3ccccc43)cc2c1` [compound 62, 3-(5-Methylcarbamoylindole-2-carbonyl)-1-(S)-(chloromethyl)-5-hydroxy-1,2-dihydro-3H-benz[e]indole]: the “fold less potent than C5 acyl derivative 54” value was determined as 5 fold. Further, the “fold more potent than (+)-CBI-TMI” value under setting [4] is 3 fold.
On to `CS(=O)(=O)c1ccc2[nH]c(C(=O)N3C[C@@H](CCl)c4c3cc(O)c3ccccc43)cc2c1` [compound 64, 3-(5-Methylsulfonylindole-2-carbonyl)-1-(S)-(chloromethyl)-5-hydroxy-1,2-dihydro-3H-benz[e]indole], for which the IC50 under setting [3] amounted to 3 pM. For the same compound, under setting [1], the “increase in cytotoxic potency over” value came out at 1000 fold.

As a reminder, the IC50 is the concentration at which inhibition is half-maximal.
